According to article PMC12737022, “Evaluations of Sex Differences in Dosimetry in Rats Following Perfluorohexanesulfonamide (PFHxSA) Oral Exposure” (Toxics, 2025):
“And” between values parts separate entries of the source, which are not always exact repeats. Identical values can stand only once.

Columns and labels:
[1] = Liver dosimetry of PFHxSA and PFHxS by targeted LC/MS/MS; format: in vivo, rat; conditions: male, Sprague Dawley (Crl:CD(SD)), rat, liver, oral, male
From the text: (§1) The plasma and liver samples for this investigation were provided by Mutlu et al.. The study design, including detailed descriptions of animal handling, procedures for dosing, clinical observations, termination, and collection of tissues, is reported elsewhere and is consistent with the ARRIVE guidelines. Briefly, male and female Sprague Dawley (SD) rats (Crl:CD(SD)) (n = 48/sex, 96 total) were purchased from Charles River Laboratory (Raleigh, NC, USA) and allowed to acclimate for ≥5 days before initial dosing. Rats were 8–10 weeks old at the time of exposure. PFHxSA dosing solutions in corn oil were prepared on Day 0 and used over the course of the study. Rats of both sexes (n = 5/sex, dose, and time point, plus eight vehicle controls per sex) were dosed by oral gavage (5 mL/kg body weight) once daily for five days. […] The formulation concentrations decreased from 100 mg/kg/day at half-log10 intervals until the lowest dose level, which was a full log10 interval below the next higher dose, giving eight dose levels (0.01 to 100 mg/kg/day or 0.025 µmol/kg/day to 250 µmol/kg/day) in addition to vehicle controls. Doses were administered in randomized order within ± 1 h on each day of dosing. […] Rats were euthanized 24 h after the last dose. Blood was collected via cardiac puncture with tripotassium ethylene diamine tetraacetic acid (K3EDTA) as an anti-coagulant and centrifuged to collect cell-free plasma. Liver was collected and flash-frozen in liquid nitrogen. Liver, plasma, and dosing formulation samples were frozen at the USEPA Center for Computational Toxicology and Exposure (CCTE), Durham, NC, USA. Tissue samples (plasma and liver, n = 96 each) were stored at ≤−70 °C prior to extraction; dosing formulation samples (n = 9) were stored at −20 °C.
(§2) Detailed information on solvents and standards used for targeted LC/MS/MS of PFHxSA and PFHxS can be found in SI Text S1 and SI Table S1. Plasma and liver preparations were modified from Conley et al.. Briefly, aliquots of plasma (25 µL) and liver (~10 mg) were spiked with PFOSA as an internal standard, as no isotope-labeled PFHxSA was available. Sample batches included up to 96 samples along with an MB, CCV, and LCS for QC. Commercial plasma (mixed-sex SD rat plasma) and liver (mixed-sex SD rat) were obtained from BioIVT (Westbury, NY, USA). Cold acetonitrile (ACN) with 0.1 M formic acid was used to precipitate proteins. Liver and plasma samples were prepared similarly, except that the livers were homogenized after solvent addition. Plasma samples were vortexed to mix before being chilled at −20 °C, after which samples were centrifuged at 5 °C and 10,000× g. Liver samples were chilled at −80 °C, then homogenized using an Omni International (Kennesaw, GA, USA) Bead Ruptor 24. Liver homogenates were centrifuged at 26,000× g and 5 °C. Supernatants from the extraction of both matrices were removed and stored at −20 °C until analysis. Refer to SI Text S4 for additional experimental details and information on calibration and QC parameters for quantitation of PFHxSA.
(§3) Targeted LC/MS/MS of PFHxSA was performed on a Sciex 4000 QTRAP LC/MS/MS system operated in negative ESI mode with MRM scanning. A Restek (Bellefonte, PA, USA) Raptor Polar X (100 mm × 2 mm, 2.7 µm) column was used for liquid chromatography. Isocratic elution occurred over 10 min with a 30:70 ratio of mobile phase A (10 mM ammonium formate): mobile phase B (60:40 ACN: methanol). Both mobile phases included 0.05% formic acid. The LOQs for PFHxSA were 0.100 µM in plasma and 0.351 µM in liver. Additional details of the instrument method parameters for targeted analysis of PFHxSA are provided in SI Table S5. The MRM transitions for the PFHxSA method are provided in SI Table S6. […]

[2] = Plasma dosimetry of PFHxSA and PFHxS by targeted LC/MS/MS; format: in vivo, rat; conditions: for concentration at 24 h: Sprague Dawley (Crl:CD(SD)), rat, plasma, oral
From the text: as §1, §2, §3

## NS(=O)(=O)C(F)(F)C(F)(F)C(F)(F)C(F)(F)C(F)(F)C(F)(F)F [PFHxSA, Perfluorohexanesulfonamide]
[1]; 10 mg/kg/day, PFHxSA 10 mg/kg/day oral 5 days, individual rats, read-out: PFHxSA Male Liver Conc. (wet weight)
  concentration at 24 h: 3370 ng/g and 8.44 µM
[1]; 30 mg/kg/day, PFHxSA 30 mg/kg/day oral 5 days, male rats, mean ± SD, read-out: PFHxSA Male Liver Conc.
  concentration at 24 h: 11.6 ± 2.6 µM
[1]; 30 mg/kg/day, PFHxSA 30 mg/kg/day oral 5 days, individual rats, read-out: PFHxSA Male Liver Conc. (wet weight)
  concentration at 24 h: 4320 ng/g and 10.8 µM
[2]; at 30 and 100 mg/kg/day
  Female PFHxSA plasma concentrations versus male plasma: at least two-fold higher
[2]; doses of 10 mg/kg/day and up
  Female plasma PFHxSA levels higher than males, on average: 2.9 fold
[2]; female, 0.01 mg/kg/day, PFHxSA 0.01 mg/kg/day oral 5 days, female rats, mean ± SD, one sample estimated as half the LOQ, read-out: PFHxSA Female Plasma Conc.
  concentration at 24 h: 0.117 ± 0.043 µM
[2]; female, 0.1 mg/kg/day, PFHxSA 0.1 mg/kg/day oral 5 days, female rats, mean ± SD, read-out: PFHxSA Female Plasma Conc.
  concentration at 24 h: 1.1 ± 0.11 µM
[2]; female, 0.1 mg/kg/day, PFHxSA 0.1 mg/kg/day oral 5 days, female, individual rats, read-out: PFHxSA Female Plasma Conc.
  concentration at 24 h: 1.03 µM and 410 ng/mL
[2]; female, 0.3 mg/kg/day, PFHxSA 0.3 mg/kg/day oral 5 days, female rats, mean ± SD, read-out: PFHxSA Female Plasma Conc.
  concentration at 24 h: 4.34 ± 1.6 µM
[2]; female, 1 mg/kg/day, PFHxSA 1 mg/kg/day oral 5 days, female rats, mean ± SD, read-out: PFHxSA Female Plasma Conc.
  concentration at 24 h: 21.3 ± 9.1 µM
[2]; female, 3 mg/kg/day, PFHxSA 3 mg/kg/day oral 5 days, female rats, mean ± SD, read-out: PFHxSA Female Plasma Conc.
  concentration at 24 h: 37.1 ± 13 µM
[2]; female, 10 mg/kg/day, PFHxSA 10 mg/kg/day oral 5 days, female rats, mean ± SD, read-out: PFHxSA Female Plasma Conc.
  concentration at 24 h: 64.9 ± 17 µM
[2]; female, 10 mg/kg/day, PFHxSA 10 mg/kg/day oral 5 days, female, individual rats, read-out: PFHxSA Female Plasma Conc.
  concentration at 24 h: 19600 ng/mL and 49 µM
[2]; female, 30 mg/kg/day, PFHxSA 30 mg/kg/day oral 5 days, female rats, mean ± SD, read-out: PFHxSA Female Plasma Conc.
  concentration at 24 h: 179 ± 66 µM
[2]; female, 100 mg/kg/day, PFHxSA 100 mg/kg/day oral 5 days, female, individual rats, read-out: PFHxSA Female Plasma Conc.
  concentration at 24 h: 111000 ng/mL and 278 µM
[2]; male, 0.01 mg/kg/day, PFHxSA 0.01 mg/kg/day oral 5 days, male rats, single rat above the LOQ, read-out: PFHxSA Male Plasma Conc.
  concentration at 24 h: 0.102 µM
[2]; male, 0.01 mg/kg/day, PFHxSA 0.01 mg/kg/day oral 5 days, male, individual rats, read-out: PFHxSA Male Plasma Conc.
  concentration at 24 h: 40.6 ng/mL and 102 nM
[2]; male, 0.1 mg/kg/day, PFHxSA 0.1 mg/kg/day oral 5 days, male rats, mean ± SD, read-out: PFHxSA Male Plasma Conc.
  concentration at 24 h: 0.796 ± 0.28 µM
[2]; male, 0.3 mg/kg/day, PFHxSA 0.3 mg/kg/day oral 5 days, male rats, mean ± SD, read-out: PFHxSA Male Plasma Conc.
  concentration at 24 h: 4.26 ± 0.48 µM
[2]; male, 0.3 mg/kg/day, PFHxSA 0.3 mg/kg/day oral 5 days, male, individual rats, read-out: PFHxSA Male Plasma Conc.
  concentration at 24 h: 1640 ng/mL and 3.49 µM
[2]; male, 1 mg/kg/day, PFHxSA 1 mg/kg/day oral 5 days, male rats, mean ± SD, read-out: PFHxSA Male Plasma Conc.
  concentration at 24 h: 11.4 ± 2.2 µM
[2]; male, 1 mg/kg/day, PFHxSA 1 mg/kg/day oral 5 days, male, individual rats, read-out: PFHxSA Male Plasma Conc.
  concentration at 24 h: 4950 ng/mL and 12.4 µM
[2]; male, 3 mg/kg/day, PFHxSA 3 mg/kg/day oral 5 days, male rats, mean ± SD, read-out: PFHxSA Male Plasma Conc.
  concentration at 24 h: 27.1 ± 8 µM
[2]; male, 3 mg/kg/day, PFHxSA 3 mg/kg/day oral 5 days, male, individual rats, read-out: PFHxSA Male Plasma Conc.
  concentration at 24 h: 9190 ng/mL and 23 µM
[2]; male, 10 mg/kg/day, PFHxSA 10 mg/kg/day oral 5 days, male rats, mean ± SD, read-out: PFHxSA Male Plasma Conc.
  concentration at 24 h: 56.8 ± 14 µM
[2]; male, 10 mg/kg/day, PFHxSA 10 mg/kg/day oral 5 days, male, individual rats, read-out: PFHxSA Male Plasma Conc.
  concentration at 24 h: 17700 ng/mL and 44.3 µM
[2]; male, 30 mg/kg/day, PFHxSA 30 mg/kg/day oral 5 days, male rats, mean ± SD, read-out: PFHxSA Male Plasma Conc.
  concentration at 24 h: 81.2 µM
[2]; male, 30 mg/kg/day, PFHxSA 30 mg/kg/day oral 5 days, male, individual rats, read-out: PFHxSA Male Plasma Conc.
  concentration at 24 h: 27700 ng/mL and 69.4 µM
[2]; male, 100 mg/kg/day, PFHxSA 100 mg/kg/day oral 5 days, male rats, average, read-out: PFHxSA Male Plasma Conc.
  concentration at 24 h: 62.1 µM
[2]; male, 100 mg/kg/day, PFHxSA 100 mg/kg/day oral 5 days, male, individual rats, read-out: PFHxSA Male Plasma Conc.
  concentration at 24 h: 29500 ng/mL and 74 µM
